According to BindingDB's records for patent US20250313535 (Dice Molecules Sv, 2025):

Biological target: Integrin alpha-4/beta-7 (Homo sapiens, UniProt P13612+P26010)
Assay: Inhibition of α4β7 and α4β1 Integrins
Method: MAdCAM (R&D Systems, 0.1 ug) was diluted in 50 μL PBS, added to each well of an opaque ELISA plate (Thermo), and incubated overnight at 4° C. Coated plates were washed once with PBS and then blocked with 200 μL of assay buffer (10 mM HEPES, 150 mM NaCl, 1 mM MnCl2, 0.1 mM CaCl2), 1% BSA) for 1 hour at 37° C. and 5% CO2. After incubation, buffer was aspirated from the plates and 50 μL of fresh assay buffer is added. Compounds were added by a compouns dispenser (Tecan) and DMSO concentration was normalized to 1% across each plate. 50 μL of RPMI-8866 cells (2×10^6 per mL) were added to each well and the plates were incubated for 1 hour at 37° C. and 5% CO2. After incubation, plates were allowed to cool to RT for 10 minutes before being washed four times in assay buffer by an automated plate washer (BioTek). After washing, 100 μL of a 1:1 mixture of assay buffer and CellTiter GLO 2.0 reagent (Promega) were added to each well. Plates were mixed for 2 minutes at 1000 rpm and then allowed to incubate an additional 10 minutes before reading out luminescence on a Tecan Spark plate reader. Raw data was converted to percent inhibition based on DMSO only and control compound wells, and curves were analyzed by 4-parameter fit within Dotmatics software.

Integrin alpha-4/beta-7, sequence (P13612 whole entry): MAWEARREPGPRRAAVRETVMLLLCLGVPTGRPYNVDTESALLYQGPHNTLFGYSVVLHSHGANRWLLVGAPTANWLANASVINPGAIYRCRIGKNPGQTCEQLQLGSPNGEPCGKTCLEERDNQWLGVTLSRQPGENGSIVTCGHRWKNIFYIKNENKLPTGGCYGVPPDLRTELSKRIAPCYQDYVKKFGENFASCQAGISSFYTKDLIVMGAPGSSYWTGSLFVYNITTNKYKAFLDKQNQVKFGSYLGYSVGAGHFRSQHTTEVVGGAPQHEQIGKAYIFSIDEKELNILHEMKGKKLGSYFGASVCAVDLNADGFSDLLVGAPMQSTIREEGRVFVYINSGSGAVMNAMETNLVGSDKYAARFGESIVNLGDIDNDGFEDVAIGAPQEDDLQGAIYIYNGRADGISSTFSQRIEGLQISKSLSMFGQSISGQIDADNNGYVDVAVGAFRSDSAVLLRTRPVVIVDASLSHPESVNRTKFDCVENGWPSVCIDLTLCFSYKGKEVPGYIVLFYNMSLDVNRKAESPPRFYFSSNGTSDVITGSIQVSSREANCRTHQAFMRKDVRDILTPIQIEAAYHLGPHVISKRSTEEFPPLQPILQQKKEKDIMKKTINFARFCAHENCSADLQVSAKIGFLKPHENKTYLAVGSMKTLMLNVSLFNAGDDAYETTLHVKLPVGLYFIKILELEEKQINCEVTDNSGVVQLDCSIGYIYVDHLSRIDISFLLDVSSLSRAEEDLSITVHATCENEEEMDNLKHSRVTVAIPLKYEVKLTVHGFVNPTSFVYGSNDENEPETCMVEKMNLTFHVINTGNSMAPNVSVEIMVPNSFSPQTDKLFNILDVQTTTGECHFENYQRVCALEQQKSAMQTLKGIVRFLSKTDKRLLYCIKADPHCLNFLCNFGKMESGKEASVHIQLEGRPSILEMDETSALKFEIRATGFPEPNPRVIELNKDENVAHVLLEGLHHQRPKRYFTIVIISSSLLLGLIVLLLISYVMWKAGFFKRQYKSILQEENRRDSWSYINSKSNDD
Integrin alpha-4/beta-7, sequence (P26010 whole entry): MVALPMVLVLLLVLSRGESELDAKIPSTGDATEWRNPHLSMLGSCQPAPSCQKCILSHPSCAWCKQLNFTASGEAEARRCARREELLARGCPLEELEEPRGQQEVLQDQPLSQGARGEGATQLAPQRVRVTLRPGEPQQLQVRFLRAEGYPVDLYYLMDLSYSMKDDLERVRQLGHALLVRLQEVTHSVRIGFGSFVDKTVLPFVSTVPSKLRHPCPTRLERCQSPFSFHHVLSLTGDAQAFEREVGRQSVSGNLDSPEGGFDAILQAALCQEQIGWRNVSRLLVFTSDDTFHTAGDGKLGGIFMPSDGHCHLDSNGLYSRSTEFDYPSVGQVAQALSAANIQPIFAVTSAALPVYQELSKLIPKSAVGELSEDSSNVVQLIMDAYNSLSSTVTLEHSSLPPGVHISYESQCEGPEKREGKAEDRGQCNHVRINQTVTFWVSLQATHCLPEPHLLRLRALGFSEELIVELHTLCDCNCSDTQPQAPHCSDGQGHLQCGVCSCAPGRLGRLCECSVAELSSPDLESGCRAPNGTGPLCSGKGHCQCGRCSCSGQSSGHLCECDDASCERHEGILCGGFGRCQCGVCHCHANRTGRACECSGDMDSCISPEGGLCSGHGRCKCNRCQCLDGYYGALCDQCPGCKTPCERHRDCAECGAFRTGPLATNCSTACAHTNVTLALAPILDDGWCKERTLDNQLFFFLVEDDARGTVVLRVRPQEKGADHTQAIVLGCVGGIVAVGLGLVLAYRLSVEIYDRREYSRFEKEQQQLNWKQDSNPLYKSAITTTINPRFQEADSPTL

Row | IC50 | Compound
1 | < 10 nM | Cn1ccc(C(F)(F)F)c(-c2nccc3c(C[C@H](NC(=O)c4c(F)cc(N(CC(F)(F)F)CC(F)(F)F)cc4F)C(=O)O)cccc23)c1=O [US20250313535, Compound 237]
2 | > 100 nM | Cn1c(=O)c(-c2cccc3c(C[C@H](NC(=O)c4c(F)cc(NC5CCC(F)(F)C5)cc4F)C(=O)O)cccc23)c(C(F)(F)F)c2ccccc21 (some centres not stated) [US20250313535, Compound 386]
